Data: patent US20120157521A1, “TREATMENT OF MACULAR DEGENERATION” (Bonomics Limited, priority 2009, published 2012)

Key:
[1] = tested on: quiescent human umbilical vein endothelial cells (HUVEC); assay: Proliferation assay - quiescent endothelium (MTT), HUVEC; format: cell-based; conditions: 48 hrs
Procedure: Proliferation Assay—quiescent endothelium: Human umbilical vein endothelial cells (CC-2519, Clonetics) were plated at 15000 cells/well in EBM2 (CC-3156, Clonetics)+0.5% FBS (CC-4101A, Clonetics)+GA-1000 (CC-4381A, Clonetics) in a 96 well plate in triplicate. Cells were cultured overnight at 37° C. 5% CO2. Medium was subsequently replaced with fresh medium including the compound or negative control. Cells were cultured for a period of 48 hrs. An MTT assay was performed to measure changes in cell numbers. Briefly, 20 μl of MTT reagent was added to cells containing 100 μl of EBM2+0.5% FBS and incubated at 37° C. for 2 hours. Absorbance was measured at 492 nm.

[2] = tested on: HUVEC cells under activated cell conditions; assay: Disruption of endothelial cell cytoskeleton (actin staining); format: cell-based, human; conditions: 10 nM, 20 minutes, actin stain
Procedure: FIG. 7 depicts disruption of endothelial cell cytoskeleton by compound Example 2. Endothelial cells were cultured in the presence of 10 nM compound Example 2 or DMSO control, and after 20 mins washed, fixed and stained with actin.
HUVEC cells were cultured under “activated” cell conditions in the presence of 10 nM compound Example 2 or DMSO control (using HUVEC cells). After 20 minutes cells were washed, fixed and stained for actin. […] A bleb is defined as an irregular bulge in the plasma membrane of a cell caused by localized decoupling of the cytoskeleton from the plasma membrane. Blebbing is the term used to describe the formation of blebs.

[3] = tested on: HUVEC endothelial cell capillary formation; assay: Endothelial cell capillary formation on Matrigel; conditions: HUVEC, 25,000/well, 96-well plates, 22 hrs
Procedure: DMSO vehicle was included in the analysis as a negative control. Cells were plated at 25,000/well in 96-well plates and cultured for 22 hrs.
DMSO vehicle (C, F) was included in the analysis as a negative control. Cells were plated at 25,000/well in 96-well plates and cultured for 22 hrs.

[4] = tested on: quiescent human abdominal aorta endothelial cells (HAAEC); assay: Proliferation assay - quiescent endothelium, HAAEC; conditions: Endothelial cell, read-out: Quiescent EC50
[5] = tested on: stable pre-formed HUVEC capillary tubes; assay: Disruptive activity on stable pre-formed capillary tubes on Matrigel; conditions: 5 hrs after compound, at concentrations that inhibit capillary formation
tubulin = assay: Tubulin polymerisation assay; format: biochemical
Procedure: Tubulin Polymerisation Assay: Tubulin polymerisation inhibition assays were performed using a fluorescent-based detection kit (#BK011, Cytoskeleton) according to the instructions of the manufacturer. The test compound was added to a 2 mg/ml tubulin solution containing 20% glycerol and 1 mM GTP in 1× Buffer 1 (Buffer 1: 80 mM Piperazine-N,N′-bis[2-ethanesulfonic acid]sequisodium salt; 2 mM magnesium chloride; 0.5 mM Ethylene glycol-bis(b-amino-ethyl ether)N,N,N′,N′-tetra-acetic acid, pH 6.9, 10 uM fluorescent reporter). Fluorescence was measured over a period of 42 minutes at 1 minute intervals. Increased fluorescence indicates increase in tubulin polymerisation. There is a ten-fold increase in the affinity of the fluorescent reporter for polymerised tubulin compared to monomeric tubulin subunits. The result is a fluorescence signal that closely follows tubulin polymerisation.

SMILES | EC50 [1] [nM] | Disruption of endothelial cell cytoskeleton (blebbing) [2] | Effect on capillary formation on Matrigel [3] | EC50 [4] [nM] | Disruption of stable pre-formed capillaries [5] | Tubulin polymerisation inhibition (in words) (tubulin)
COc1cc(C(=O)c2c(C)oc3c(OP(=O)([O-])[O-])c(OC)ccc23)cc(OC)c1OC.[Na+].[Na+] [Example 2, Disodium 6-methoxy-2-methyl-3-(3,4,5-trimethoxybenzoyl)benzofuran-7-yl phosphate] | 23.3 | clear evidence of “blebbing” | inhibited | 12.5 | does not disrupt stable pre-formed capillaries | –
COc1cc(C(=O)c2c(C)oc3c(O)c(OC)ccc23)cc(OC)c1OC [Example 1, 2-Methyl-7-hydroxy-3-(3,4,5-trimethoxybenzoyl)-6-methoxybenzofuran] | – | – | – | – | – | potent tubulin polymerisation inhibitor
